Patent US12281329B2, “Compositions and methods for immune cell modulation in adoptive immunotherapies” (Fate Therapeutics, Inc., priority 2016, dated 2025)
Structures can show the parent of a compound that is named as a salt.

Tests used:
T cells = experiment: In vitro T cell culture compound screen, flow cytometry for CCR7+CD62L+ cells; format: cell-based, human; conditions: for CD4 Hit / CD8 Hit: 10 μM, about 6 days, anti-CD3/anti-CD28 beads, viability and cell number Z-score > −1; for CD4 Hit: hit: Z-score > +2 for percent or relative number CCR7+CD62L+ in viable CD4+; for CD8 Hit: hit: Z-score > +2 for percent or relative number CCR7+CD62L+ in viable CD8+
Text: In Vitro T Cell Culture. Fresh leukopaks (AllCells, Alameda, CA) were obtained from healthy donors, from which T cells were negatively selected using the EasySep Human T cell Enrichment Kit (Stem Cell Technologies, Vancouver, Canada). The freshly isolated T cells were aliquoted and cryopreserved. On the day the screens were initiated, T cells were thawed and washed into X-Vivo 15 with 5% human AB serum, IL-2, pen/strep, and additional supplements. Cells were dispensed into flat-bottom 384-well plates at 5×10^5 cells/ml with anti-CD3/Anti-CD28 dynabeads (ThermoFisher, Waltham, MA) at a 3:1 bead-to-cell ratio. Individual compounds were added at a final concentration of 10 μM to each well from column 3 to column 22 of each plate. Positive and negative controls were added to additional wells. Cells were incubated for about 6 days at 37 degrees with 5% CO2.
Flow Cytometry. On Day 6 of culture, cells were stained with a fixable viability marker and fluorophore-conjugated antibodies: CD3, CD4, CD8, CD45RA, CD45RO, CD62L, CCR7, CD27, and CD122 (BD Biosciences, San Jose, CA; and BioLegend, San Diego, CA). Fluorescent absolute counting beads (Spherotech, Lake Forest, IL) were added just prior to acquisition. Data acquisition was performed on a BD Fortessa X-20 (BD Biosciences) and data were analyzed using Treestar software (FlowJo, Ashland, OR) and Spotfire (Tibco, Boston, MA).
These cells are characterized by expression of CCR7 and CD62L. Therefore, cells co-expressing both of these identifying markers were evaluated. Within the viable CD4+ population and viable CD8+ population, the percent of cells co-expressing CCR7 and CD62L was determined. The expression of either CD62L or CCR7 on T cells, as indicative of the desired T cell subsets, have been described as having favorable functional characteristics for CAR-T cell therapy, and potentially other adoptive T cell therapies.
The number of events in each of these gates relative to the number of absolute counting beads in each sample was calculated, defining a relative measure of the absolute number of naïve, stem cell memory, or central memory T cells within the CD4+ and/or CD8+ populations. A z-Score relative to the screened compound samples within each 384-well plate was calculated for each of these four values: 1) percent CCR7+CD62L+ in CD4+, 2) percent CCR7+CD62L+ in CD8+, 3) absolute relative number of CCR7+CD62L+ in CD4+, and 4) absolute relative number of CCR7+CD62L+ in CD8+(FIGS. 1A and 1B). Z-scores were also calculated for the percent viability of all cells within each sample and the relative absolute number of cells within each sample. A “Z-Score” is a statistical measurement of a score's relationship to the mean in a group of scores. AZ-score of 0 means the score is the same as the mean. AZ-score can also be positive or negative, indicating whether it is above or below the mean and by how many standard deviations.

K562 cells = experiment: NK cell cytotoxicity assay, K562 target cells; format: cell-based; conditions: 4 hours; NK cells overnight 10 ng/mL IL-15 only or 7 day IL-15 + 5 μM CHIR99021
Description: (§1) NK Cell Cytotoxicity Assay: Cytotoxicity was determined using a flow cytometry based method based on a previously published method (Kim, et al. J Immunol Methods. 2007 Aug. 31; 325(1-2): 51-66). NK cells were co-cultured with e450-proliferation dye-labelled targets for 4 hours. CellEvent™ Caspase-3/7 Green Flow Cytometry Assay Kit (Lifer Technologies) was used to assay for cell death among target cells, and samples were read on a BD LSRFortessa cytometer. Killing of SKOV-3 targets was quantified using the Incucyte Zoom instrument. SKOV-3 cells were transiently transduced with NucLight-Red BacMam reagent (Essen Biosciences) and co-cultured with the indicated NK cell populations for 74 hours, with images taken on two hour intervals. Caspase 3/7 activity was monitored to indicate target cells undergoing apoptosis using the CellEvent™ Caspase-3/7 Green Detection Reagent. The number of target cells was normalized to SKOV-3 cells cultured alone, and targets undergoing apoptosis were quantified based on caspase 3/7 activity.
The ability of GSK3 inhibition to enhance cytotoxicity of NK cells isolated directly from donors was assessed using in vitro killing assays. […] depleted PBMC population was treated overnight with 10 ng/mL IL-15 only (primed), or a 7 day culture combination of 10 ng/mL IL-15 and 5 μM CHIR99021. The target cells for the killing assays included K562 cells, CD20+ Raji cells, HER2+ SKOV3 cells and HER2+A549 cells. The E:T (Effector:Target) ratio applied to each assay ranged from 0.1, 0.5, 1, 5 to 10. After the target cells were incubated with the differently treated NK cells for 4 hours, the respective percentage of specific killing (target cell lysis) was calculated. […] Raji cells are less prone to NK mediated cytotoxicity.
The ability of STING agonist to enhance cytotoxicity of GSK3i multiday modulated NK cells was assessed using in vitro killing assays. […]

CD20+ Raji cells = experiment: NK cell cytotoxicity assay, Raji target cells; format: cell-based, human; conditions: 4 hours; NK cells overnight IL-15 only or 7 days IL15 + GSK3i
Description: as §1
The ability of GSK3 inhibition to enhance cytotoxicity of NK cells isolated directly from donors was assessed using in vitro killing assays. […] After the target cells were incubated with the differently treated NK cells for 4 hours, the respective percentage of specific killing (target cell lysis) was calculated. […]

[1] = at least in viable CD8+ population
[2] = in both viable CD4+ population and viable CD8+ population

Compound: N.S=C(S)N1CCCC1 [1-Pyrrolidinecarbodithioic acid, ammonium salt]
- CD4 Hit (T cells): CD4
- number or ratio of cells co-expressing CCR7 and CD62L (T cells; [1]): increased

Compound: CCCc1nc2c(C)cc(-c3nc4ccccc4n3C)cc2n1Cc1ccc(-c2ccccc2C(=O)O)cc1 [Telmisartan]
- CD4 Hit (T cells): CD4
- number or ratio of cells co-expressing CCR7 and CD62L (T cells; [1]): increased

Compound: CC(C)(C)c1ccc(C(O)CCCN2CCC(C(O)(c3ccccc3)c3ccccc3)CC2)cc1 (stereo not shown) [Terfenadine]
- CD4 Hit (T cells): CD4
- number or ratio of cells co-expressing CCR7 and CD62L (T cells; [1]): increased

Compound: Oc1cccc(-c2nc(N3CCOCC3)c3oc4ncccc4c3n2)c1 [PI-103]
- CD4 Hit (T cells): CD4
- CD8 Hit (T cells): CD8

Compound: Oc1c(I)cc(Cl)c2cccnc12 [8-Quinolinol, 5-chloro-7-iodo-]
- CD4 Hit (T cells): CD4
- CD8 Hit (T cells): CD8
- number or ratio of cells co-expressing CCR7 and CD62L (T cells; [2]): increased

Compound: Diethylenetriaminepentaacetic acid, penta sodium
- CD4 Hit (T cells): CD4
- CD8 Hit (T cells): CD8
- number or ratio of cells co-expressing CCR7 and CD62L (T cells; [2]): increased

Compound: CC[n+]1c(/C=C/C=C2/N(C)c3ccccc3C2(C)C)sc2ccccc21.[I-] [AC-93253 iodide]
- CD4 Hit (T cells): CD4
- CD8 Hit (T cells): CD8
- number or ratio of cells co-expressing CCR7 and CD62L (T cells; [2]): increased

Compound: Sc1ncnc2nc[nH]c12 [6-Mercaptopurine]
- CD4 Hit (T cells): CD4
- CD8 Hit (T cells): CD8
- number or ratio of cells co-expressing CCR7 and CD62L (T cells; [2]): increased

Compound: CN(C)c1ccc(C=C2C(=O)Nc3ccccc32)cc1 [SU 4312]
- CD8 Hit (T cells): CD8
- number or ratio of cells co-expressing CCR7 and CD62L (T cells; [1]): increased

Compound: 2-Naphthacenecarboxamide, 7-chloro-4-(dimethylamino)-1,4,4a,5,5a,6,11,12a-octahy
- CD8 Hit (T cells): CD8
- number or ratio of cells co-expressing CCR7 and CD62L (T cells; [1]): increased

Compound: Oc1c(Cl)cc(Cl)c2cccnc12 [8-Quinolinol, 5,7-dichloro-]
- CD4 Hit (T cells): CD4
- CD8 Hit (T cells): CD8
- number or ratio of cells co-expressing CCR7 and CD62L (T cells; [2]): increased

Compound: IL15: recombinant human IL-15, cytokine used alone as comparator culture (10 ng/mL)
- E:T50 (E:T ratio when there is 50% of target cell lysis), K562 killing assay (K562 cells): about 10
- E:T50, Raji cells (CD20+ Raji cells): ~100

Compound: CCC(CO)Nc1nc(NCc2ccccc2)c2ncn(C(C)C)c2n1 (stereo in doubt) [Roscovitine, (S)-Isomer]
- CD4 Hit (T cells): CD4
- number or ratio of cells co-expressing CCR7 and CD62L (T cells; [1]): increased

Compound: C=CCc1cccc(/C=N/NC(=O)CN2CCN(Cc3ccccc3)CC2)c1O [PAC-1]
- CD4 Hit (T cells): CD4
- number or ratio of cells co-expressing CCR7 and CD62L (T cells; [1]): increased

Compound: COc1cc2nc(N3CCCN(C)CC3)nc(NC3CCN(Cc4ccccc4)CC3)c2cc1OC [BIX01294]
- CD4 Hit (T cells): CD4
- number or ratio of cells co-expressing CCR7 and CD62L (T cells; [1]): increased

Compound: CC(C)C1CCC2(CO2)C2C(=O)OCC(C(=O)O)=CC12 (stereo not shown) [Heptelidic acid]
- CD4 Hit (T cells): CD4
- CD8 Hit (T cells): CD8
- number or ratio of cells co-expressing CCR7 and CD62L (T cells; [2]): increased

Compound: C[C@]12CC[C@@H]3c4ccc(O)cc4C[C@@H](CCCCCCCCC[S+]([O-])CCCC(F)(F)C(F)(F)F)[C@H]3[C@@H]1CC[C@@H]2O (stereo partly shown) [Fulvestrant]
- CD8 Hit (T cells): CD8
- number or ratio of cells co-expressing CCR7 and CD62L (T cells; [1]): increased

Compound: C=CC1=C(C)c2cc3[nH]c(cc4nc(cc5[nH]c(cc1n2)c(C)c5CCC(=O)O)C(CCC(=O)O)=C4C)c(C)c3C=C [Protoporphyrin IX disodium]
- CD4 Hit (T cells): CD4
- number or ratio of cells co-expressing CCR7 and CD62L (T cells; [1]): increased

Compound: Nc1ncn([C@@H]2O[C@H](CO)[C@@H](O)[C@H]2O)c(=O)n1 [5-Azacytidine]
- CD4 Hit (T cells): CD4
- CD8 Hit (T cells): CD8
- number or ratio of cells co-expressing CCR7 and CD62L (T cells; [2]): increased

Compound: NC1CCN(c2nc3c(cc2F)c(=O)c(C(=O)O)cn3-c2ccc(F)cc2F)C1 (stereo not shown) [Tosufloxacin hydrochloride]
- CD4 Hit (T cells): CD4
- number or ratio of cells co-expressing CCR7 and CD62L (T cells; [1]): increased

Compound: CCCc1c(-c2ccc(O)cc2)nn(-c2ccc(O)cc2)c1-c1ccc(O)cc1 [1,3,5-tris(4-hydroxyphenyl)-4-propyl-1H-pyrazole]
- CD4 Hit (T cells): CD4
- number or ratio of cells co-expressing CCR7 and CD62L (T cells; [1]): increased

Compound: N#CC(=C(/N)Sc1ccccc1N)/C(C#N)=C(\N)Sc1ccccc1N [U0126]
- CD4 Hit (T cells): CD4
- number or ratio of cells co-expressing CCR7 and CD62L (T cells; [1]): increased

Compound: C/C=C(/C)C(=O)O[C@H]1C(C)=C2[C@H]([C@@H]1OC(=O)CCCCCCC)[C@@](C)(OC(C)=O)C[C@H](OC(=O)CCC)[C@@]1(O)[C@H]2OC(=O)[C@@]1(C)O [Thapsigargin]
- CD8 Hit (T cells): CD8
- number or ratio of cells co-expressing CCR7 and CD62L (T cells; [1]): increased

Compound: O=C(O)Cc1cc(I)c(Oc2ccc(O)c(I)c2)c(I)c1 [Tiratricol]
- CD4 Hit (T cells): CD4
- CD8 Hit (T cells): CD8
- number or ratio of cells co-expressing CCR7 and CD62L (T cells; [2]): increased

Compound: COc1ccc(-c2cc3nccn3c(Nc3ncccc3C(N)=O)n2)cc1OC [BAY 61-3606]
- CD4 Hit (T cells): CD4
- number or ratio of cells co-expressing CCR7 and CD62L (T cells; [1]): increased

Compound: O=C(N/N=C/c1ccc([N+](=O)[O-])o1)c1ccc(O)cc1 [Nifuroxazide]
- CD8 Hit (T cells): CD8
- number or ratio of cells co-expressing CCR7 and CD62L (T cells; [1]): increased

Compound: CN[C@H]1CC[C@@H](c2ccc(Cl)c(Cl)c2)c2ccccc21 [Sertraline]
- CD4 Hit (T cells): CD4
- CD8 Hit (T cells): CD8

Compound: CC[N+](C)(C)c1cccc(O)c1 [Edrophonium chloride]
- CD8 Hit (T cells): CD8
- number or ratio of cells co-expressing CCR7 and CD62L (T cells; [1]): increased
